Measured values as given in PubChem BioAssay AID330 (DTP/NCI, 2004).
Where “and” joins values, the source holds several entries; their conditions need not be identical. Equal values may be shown once. Toxic doses and inconclusive results are not listed.

Tested on: P388 leukemia ip, CD2F1 mice, survival T/C
Experiment: NCI In Vivo Anticancer Drug Screen. Data for tumor model P388 Leukemia (intraperitoneal) in CD2F1 (CDF1) mice
Settings: endpoint: median survival time, higher = longer survival
How it was run: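 Mice carrying the transplanted tumor received test compound or vehicle. Survival was recorded in each group, and the value is the treated-group measurement divided by that of the vehicle-treated control group.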

[1] = dose: 50.0 mg/kg/injection, schedule: Q01DX009 (ip), vehicle: saline
[2] = dose: 100.0 mg/kg/injection, schedule: Q01DX009 (ip), vehicle: saline
[3] = dose: 200.0 mg/kg/injection, schedule: Q01DX009 (ip), vehicle: saline
[4] = dose: 50.0 mg/kg/injection, schedule: Q01DX009 (ip), vehicle: saline with Tween-80
[5] = dose: 50.0 mg/kg/injection, schedule: Q01DX005 (ip), vehicle: Klucel (hydroxypropylcellulose) (HPC)
[6] = dose: 100.0 mg/kg/injection, schedule: Q01DX005 (ip), vehicle: Klucel (hydroxypropylcellulose) (HPC)
[7] = dose: 200.0 mg/kg/injection, schedule: Q01DX005 (ip), vehicle: Klucel (hydroxypropylcellulose) (HPC)
[8] = dose: 100.0 mg/kg/injection, schedule: Q01DX009 (ip), vehicle: saline with Tween-80
[9] = dose: 200.0 mg/kg/injection, schedule: Q01DX009 (ip), vehicle: saline with Tween-80

CC(=O)CN1CCSC1=N was tested. Which T/C (dose: 100.0 mg/kg/injection, schedule: Q01DX001 (ip), vehicle: saline) did it give?
Its T/C is 97 % of control.

CS(=O)(=O)C(=S)Sc1ccccc1 was tested. Which T/C (dose: 25.0 mg/kg/injection, schedule: Q01DX001 (ip), vehicle: saline with Tween-80) did it give?
Its T/C is 97 % of control.

And the T/C (dose: 50.0 mg/kg/injection, schedule: Q01DX001 (ip), vehicle: saline with Tween-80)?
Its T/C is 97 % of control.

What does the source list for CC(O)C(O)C(=O)O (stereo not given)?
T/C [1]: 94 % of control; T/C [2]: 93 % of control; T/C [3]: 91 % of control; T/C (dose: 400.0 mg/kg/injection, schedule: Q01DX009 (ip), vehicle: saline): 92 % of control

With O=C(N/N=C/c1cc(Cl)cc(Cl)c1[O-])c1ccccc1.O=C(N/N=C/c1cc(Cl)cc(Cl)c1[O-])c1ccccc1.[Zn+2] as the molecule, how does the T/C (dose: 100.0 mg/kg/injection, schedule: Q01DX001 (ip), vehicle: saline with Tween-80) read?
The T/C was 92 % of control.

What about the T/C (dose: 200.0 mg/kg/injection, schedule: Q01DX001 (ip), vehicle: saline with Tween-80) of the same molecule?
The T/C was 94 % of control.

What about the T/C (dose: 400.0 mg/kg/injection, schedule: Q01DX001 (ip), vehicle: saline with Tween-80) of the same molecule?
The T/C was 92 % of control.

What does the source list for CNC(=S)N/N=C\C(C)=N/Nc1ccc([N+](=O)[O-])cc1?
T/C [1]: 94 % of control; T/C [2]: 93 % of control; T/C [3]: 87 % of control

COc1cc(C)c2sc3ccccc3c(=O)c2c1NCCN(C)C was tested. Which T/C (dose: 12.5 mg/kg/injection, schedule: Q01DX009 (ip), vehicle: saline) did it give?
Its T/C is 100 % of control and 104 % of control and 108 % of control.

What about the T/C (dose: 25.0 mg/kg/injection, schedule: Q01DX009 (ip), vehicle: saline) of the same molecule?
The T/C was 99 % of control and 108 % of control and 110 % of control.

And the T/C [4]?
The T/C was 96 % of control.

What about the T/C [2] of the same molecule?
The T/C was 111 % of control and 112 % of control.

Which results are given for O=CNCO?
T/C (dose: 250.0 mg/kg/injection, schedule: Q01DX005 (ip), vehicle: water): 100 % of control; T/C (dose: 500.0 mg/kg/injection, schedule: Q01DX005 (ip), vehicle: water): 101 % of control and 103 % of control; T/C (dose: 1000.0 mg/kg/injection, schedule: Q01DX005 (ip), vehicle: water): 108 % of control and 110 % of control; T/C (dose: 2000.0 mg/kg/injection, schedule: Q01DX005 (ip), vehicle: water): 114 % of control

With Cc1cc(OP2(=O)Nc3cccc4cccc(c34)N2)ccc1Cl as the molecule, how does the T/C (dose: 50.0 mg/kg/injection, schedule: Q01DX005 (ip), vehicle: saline with Tween-80) read?
The T/C was 89 % of control.

And the T/C (dose: 100.0 mg/kg/injection, schedule: Q01DX005 (ip), vehicle: saline with Tween-80)?
Its T/C is 89 % of control.

What does the source list for O=[N+]([O-])c1cc2ccc3ccoc3c2o1?
T/C [5]: 90 % of control; T/C [6]: 97 % of control; T/C [7]: 96 % of control

Which T/C (dose: 50.0 mg/kg/injection, schedule: Q01DX009 (ip), vehicle: Klucel (hydroxypropylcellulose) (HPC)) does the source give for CCCCN1C(=O)c2ccc(N)cc2C1=O here?
The T/C was 100 % of control.

And the T/C (dose: 100.0 mg/kg/injection, schedule: Q01DX009 (ip), vehicle: Klucel (hydroxypropylcellulose) (HPC))?
Its T/C is 97 % of control.

And the T/C (dose: 200.0 mg/kg/injection, schedule: Q01DX009 (ip), vehicle: Klucel (hydroxypropylcellulose) (HPC))?
Its T/C is 110 % of control.

Which results are given for c1ccc(Cn2c(-c3ccccc3)c[n+]3ccsc23)cc1?
T/C (dose: 3.12 mg/kg/injection, schedule: Q01DX009 (ip), vehicle: saline with Tween-80): 117 % of control; T/C (dose: 6.25 mg/kg/injection, schedule: Q01DX009 (ip), vehicle: saline with Tween-80): 115 % of control and 94 % of control; T/C (dose: 12.5 mg/kg/injection, schedule: Q01DX009 (ip), vehicle: saline with Tween-80): 108 % of control and 117 % of control

With CCOC(=O)N/N=C/c1ccc2c(c1)c1ccccc1n2CC as the molecule, how does the T/C [5] read?
Its T/C is 90 % of control.

What about the T/C [6] of the same molecule?
The T/C was 98 % of control.

And the T/C [7]?
The T/C was 90 % of control.

Which T/C (dose: 15.0 mg/kg/injection, schedule: Q01DX005 (ip), vehicle: saline with Tween-80) does the source give for COC(=O)C(=O)c1c(C(=O)OC)nc2nnc(N)n2c1-c1cccc([N+](=O)[O-])c1 here?
Its T/C is 92 % of control.

And the T/C (dose: 30.0 mg/kg/injection, schedule: Q01DX005 (ip), vehicle: saline with Tween-80)?
Its T/C is 91 % of control.

What about the T/C (dose: 60.0 mg/kg/injection, schedule: Q01DX005 (ip), vehicle: saline with Tween-80) of the same molecule?
Its T/C is 88 % of control.

And the T/C (dose: 120.0 mg/kg/injection, schedule: Q01DX005 (ip), vehicle: saline with Tween-80)?
The T/C was 86 % of control.

C=Cn1ccnc1C(O)(c1ccc(Cl)cc1)c1ccc(Cl)cc1 was tested. Which T/C [4] did it give?
The T/C was 92 % of control and 94 % of control.

And the T/C [8]?
Its T/C is 100 % of control and 94 % of control.

And the T/C [9]?
The T/C was 94 % of control.

What about the T/C (dose: 400.0 mg/kg/injection, schedule: Q01DX009 (ip), vehicle: saline with Tween-80) of the same molecule?
The T/C was 95 % of control and 98 % of control.

How did the T/C (dose: 0.63 mg/kg/injection, schedule: Q01DX005 (ip), vehicle: saline) turn out when O=NN(CCCl)C(=O)NC1[C@H](O)CCC[C@@H]1O (stereo not given in full) was run?
The T/C was 118 % of control.

What about the T/C (dose: 2.5 mg/kg/injection, schedule: Q01DX005 (ip), vehicle: saline) of the same molecule?
Its T/C is 159 % of control.

And the T/C (dose: 5.0 mg/kg/injection, schedule: Q01DX005 (ip), vehicle: saline)?
The T/C was 190 % of control and 267 % of control.

What about the T/C (dose: 10.0 mg/kg/injection, schedule: Q01DX005 (ip), vehicle: saline) of the same molecule?
The T/C was 116 % of control and 206 % of control.

Which results are given for CN1C(=O)C(O)N=C(c2ccccc2)c2cc(Cl)ccc21 (stereo not given)?
T/C [4]: 101 % of control; T/C [8]: 105 % of control; T/C [9]: 117 % of control
